Measurements published in US20150216806A1, “LAXATIVE COMPOSITIONS AND METHODS FOR TREATING CONSTIPATION AND RELATED GASTROINTESTINAL DISEASES AND CONDITIONS” (SALIX PHARMACEUTICALS, INC., priority 2012, published 2015).

System: patient with chronic constipation
Assay: Example 7: case report, bisoxatin added to colchicine in chronic constipation
Assay type: in vivo, human
Details: 1 mg in the morning and 1.5 in the evening; still missing a day here and there
Method: They were given added bisoxatin of 120 mg twice daily. […] They were going too well however and the bisoxatin had to be cut back 120 mg mane. For a week or so they were able to take the bisoxatin 120 in the morning and every second day 120 at night. They continued with the treatment for 3 or 4 weeks to date.

COc1cc2c(c(OC)c1OC)-c1ccc(OC)c(=O)cc1[C@@H](NC(C)=O)CC2 [colchicine]
response of constipation to colchicine alone: did not respond
